Results from patent publication US6906205B2, “Spiro and dispiro 1,2,4-trioxolane antimalarials” (Medicines for Malaria Venture MMV, priority 2002, dated 2005).
Values after ≈ are worked out from the molar mass of the structure shown.

Tested on: P. falciparum K1 strain (Thailand resistant to chloroquine)
Test: semiautomated microdilution assay, [3H]-hypoxanthine incorporation, K1 strain
Assay type: cell-based, Plasmodium falciparum
Conditions: K1 strain, 72 h incubation
Procedure, shortened: (§1)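 Asynchronous stock cultures → intraerythrocytic forms; semiautomated microdilution; IC50 by logit regression.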

SMILES	IC50 (ng/ml) K1
O=C(O)CC[C@H]1CC[C@]2(CC1)OO[C@]1(O2)C2CC3CC(C2)CC1C3 [OZ352]	19 ng/mL (≈ 0.0565 µM)
C1COC2(CCC3(CC2)OOC2(O3)C3CC4CC(C3)CC2C4)O1 (stereo not shown) [OZ10]	0.40 ng/mL (≈ 0.00124 µM)
CC1(C)COC2(CCC3(CC2)OOC2(CC(C)(C)CC(C)(C)C2)O3)OC1 [OZ36]	24 ng/mL (≈ 0.0651 µM)
C1C2CC3CC1CC(C2)C31OOC2(O1)C1CC3CC(C1)CC2C3 (stereo not shown) [OZ04]	>100/>100 ng/ml
O=C(O)CNC[C@H]1CC[C@]2(CC1)OO[C@]1(O2)C2CC3CC(C2)CC1C3 [OZ309]	11 ng/mL (≈ 0.0313 µM)
CC(C)(N)C(=O)NC[C@H]1CC[C@]2(CC1)OOC1(O2)C2CC3CC(C2)CC1C3 (stereo partly shown) [OZ281]	0.50 ng/mL (≈ 0.00132 µM)
Oc1ccc([C@H]2CC[C@]3(CC2)OOC2(O3)C3CC4CC(C3)CC2C4)cc1 (stereo partly shown) [OZ288]	1.7 ng/mL (≈ 0.00477 µM)
C1CCCCCC2(CCCCC1)OOC1(O2)C2CC3CC(C2)CC1C3 (stereo not shown) [OZ20]	15 ng/mL (≈ 0.043 µM)

Tested on: P. falciparum NF54 strain (sensitive to standard antimalarials)
Test: semiautomated microdilution assay, [3H]-hypoxanthine incorporation, NF54 strain
Assay type: cell-based, Plasmodium falciparum
Conditions: NF54 strain, 72 h incubation
Procedure, shortened: as §1

SMILES	IC50 (ng/ml) NF54
O=C(O)CC[C@H]1CC[C@]2(CC1)OO[C@]1(O2)C2CC3CC(C2)CC1C3 [OZ352]	20 ng/mL (≈ 0.0594 µM)
C1COC2(CCC3(CC2)OOC2(O3)C3CC4CC(C3)CC2C4)O1 (stereo not shown) [OZ10]	0.67 ng/mL (≈ 0.00208 µM)
CC1(C)COC2(CCC3(CC2)OOC2(CC(C)(C)CC(C)(C)C2)O3)OC1 [OZ36]	62 ng/mL (≈ 0.168 µM)
C1C2CC3CC1CC(C2)C31OOC2(O1)C1CC3CC(C1)CC2C3 (stereo not shown) [OZ04]	>100/>100 ng/ml
O=C(O)CNC[C@H]1CC[C@]2(CC1)OO[C@]1(O2)C2CC3CC(C2)CC1C3 [OZ309]	17 ng/mL (≈ 0.0484 µM)
CC(C)(N)C(=O)NC[C@H]1CC[C@]2(CC1)OOC1(O2)C2CC3CC(C2)CC1C3 (stereo partly shown) [OZ281]	0.30 ng/mL (≈ 0.000793 µM)
Oc1ccc([C@H]2CC[C@]3(CC2)OOC2(O3)C3CC4CC(C3)CC2C4)cc1 (stereo partly shown) [OZ288]	2.7 ng/mL (≈ 0.00757 µM)
C1CCCCCC2(CCCCC1)OOC1(O2)C2CC3CC(C2)CC1C3 (stereo not shown) [OZ20]	20 ng/mL (≈ 0.0574 µM)

Tested on: ANKA strain of P. berghei
Test: single dose STI in vivo screen in infected mice
Set-up: species or system Plasmodium berghei
Conditions: percent reduction in parasitemia day 3 post-infection; single 3 mg/kg po in SSV
Procedure, shortened: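 Groups of 3-5 Moro SPF or NMRI mice infected with the ANKA strain of P. berghei received a single dose of trioxolane on day one post-infection. The compound was given in 3% ethanol and 7% Tween 80 or in SSV (0.5% w/v CMC, 0.5% v/v benzyl alcohol, 0.4% v/v Tween 80, 0.9% w/v sodium chloride in water). Antimalarial activity was scored as percent reduction in parasitemia on day three and as survival time versus untreated controls. Survival to day 30 counted as cure.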

SMILES	Activity (%) 3 mg/kg SSV po
O=C(O)CC[C@H]1CC[C@]2(CC1)OO[C@]1(O2)C2CC3CC(C2)CC1C3 [OZ352]	77%
O=C(O)CNC[C@H]1CC[C@]2(CC1)OO[C@]1(O2)C2CC3CC(C2)CC1C3 [OZ309]	86%
CC(C)(N)C(=O)NC[C@H]1CC[C@]2(CC1)OOC1(O2)C2CC3CC(C2)CC1C3 (stereo partly shown) [OZ281]	96%
Oc1ccc([C@H]2CC[C@]3(CC2)OOC2(O3)C3CC4CC(C3)CC2C4)cc1 (stereo partly shown) [OZ288]	82%

Same assay, conditions: percent reduction in parasitemia day 3 post-infection; single 10 mg/kg po in 3% ethanol and 7% Tween 80; mice

SMILES	Activity (%) po
C1COC2(CCC3(CC2)OOC2(O3)C3CC4CC(C3)CC2C4)O1 (stereo not shown) [OZ10]	99.6%
CC1(C)COC2(CCC3(CC2)OOC2(CC(C)(C)CC(C)(C)C2)O3)OC1 [OZ36]	0/NA/0%
C1C2CC3CC1CC(C2)C31OOC2(O1)C1CC3CC(C1)CC2C3 (stereo not shown) [OZ04]	0/NA/0^1%

Same assay, conditions: percent reduction in parasitemia day 3 post-infection; single 10 mg/kg po in SSV

SMILES	Activity (%) 10 mg/kg SSV po
O=C(O)CC[C@H]1CC[C@]2(CC1)OO[C@]1(O2)C2CC3CC(C2)CC1C3 [OZ352]	99.66%

Same assay, conditions: percent reduction in parasitemia day 3 post-infection; single 10 mg/kg sc in 3% ethanol and 7% Tween 80; mice

SMILES	Activity (%) sc
C1COC2(CCC3(CC2)OOC2(O3)C3CC4CC(C3)CC2C4)O1 (stereo not shown) [OZ10]	99.98%
CC1(C)COC2(CCC3(CC2)OOC2(CC(C)(C)CC(C)(C)C2)O3)OC1 [OZ36]	0/NA/0%
C1C2CC3CC1CC(C2)C31OOC2(O1)C1CC3CC(C1)CC2C3 (stereo not shown) [OZ04]	0/NA/0^1%

Same assay, conditions: single 3 mg/kg po in SSV

SMILES	Survival (days) 3 mg/kg SSV po
O=C(O)CC[C@H]1CC[C@]2(CC1)OO[C@]1(O2)C2CC3CC(C2)CC1C3 [OZ352]	7.2 days
CC(C)(N)C(=O)NC[C@H]1CC[C@]2(CC1)OOC1(O2)C2CC3CC(C2)CC1C3 (stereo partly shown) [OZ281]	10.2 days

Same assay, conditions: single 10 mg/kg po in 3% ethanol and 7% Tween 80; untreated control 5.6 ± 0.3

SMILES	Survival (days) po
C1COC2(CCC3(CC2)OOC2(O3)C3CC4CC(C3)CC2C4)O1 (stereo not shown) [OZ10]	8.9 days
CC1(C)COC2(CCC3(CC2)OOC2(CC(C)(C)CC(C)(C)C2)O3)OC1 [OZ36]	5.7/NA/5.7 days
C1C2CC3CC1CC(C2)C31OOC2(O1)C1CC3CC(C1)CC2C3 (stereo not shown) [OZ04]	5.3/NA/5.3^1 days

Same assay, conditions: single 10 mg/kg po in SSV

SMILES	Survival (days) 10 mg/kg SSV po
O=C(O)CC[C@H]1CC[C@]2(CC1)OO[C@]1(O2)C2CC3CC(C2)CC1C3 [OZ352]	8.2 days
O=C(O)CNC[C@H]1CC[C@]2(CC1)OO[C@]1(O2)C2CC3CC(C2)CC1C3 [OZ309]	8.8 days
CC(C)(N)C(=O)NC[C@H]1CC[C@]2(CC1)OOC1(O2)C2CC3CC(C2)CC1C3 (stereo partly shown) [OZ281]	8.7 days
Oc1ccc([C@H]2CC[C@]3(CC2)OOC2(O3)C3CC4CC(C3)CC2C4)cc1 (stereo partly shown) [OZ288]	11.0 days

Same assay, conditions: single 10 mg/kg sc in 3% ethanol and 7% Tween 80; untreated control 5.6 ± 0.3

SMILES	Survival (days) sc
C1COC2(CCC3(CC2)OOC2(O3)C3CC4CC(C3)CC2C4)O1 (stereo not shown) [OZ10]	10.5 days
CC1(C)COC2(CCC3(CC2)OOC2(CC(C)(C)CC(C)(C)C2)O3)OC1 [OZ36]	5.7/NA/5.7 days
C1C2CC3CC1CC(C2)C31OOC2(O1)C1CC3CC(C1)CC2C3 (stereo not shown) [OZ04]	5.3/NA/5.3^1 days

Tested on: Schistosoma mansoni 21-day-old schistosomules
Test: effect on 21-day-old schistosomules in mice
Assay type: in vivo
Conditions: single 200 mg/kg per os, female mice
Procedure: All groups were killed 4 weeks after treatment and the liver and intestine were removed and separated. The liver and intestine were compressed and alive male and female worms could be seen and counted. The effect of the compounds was evaluated by mean total and female worm burden.

SMILES	% reduction of schistosomule growth at day 21 after per os application of 200 mg/kg, FWR (%)	% reduction of schistosomule growth at day 21 after per os application of 200 mg/kg, TWR (%)
O=C(O)CC[C@H]1CC[C@]2(CC1)OO[C@]1(O2)C2CC3CC(C2)CC1C3 [OZ352]	91%	89%
C1COC2(CCC3(CC2)OOC2(O3)C3CC4CC(C3)CC2C4)O1 (stereo not shown) [OZ10]	73%	66%
CC1(C)COC2(CCC3(CC2)OOC2(CC(C)(C)CC(C)(C)C2)O3)OC1 [OZ36]	12%	16%
C1C2CC3CC1CC(C2)C31OOC2(O1)C1CC3CC(C1)CC2C3 (stereo not shown) [OZ04]	7%	7%
O=C(O)CNC[C@H]1CC[C@]2(CC1)OO[C@]1(O2)C2CC3CC(C2)CC1C3 [OZ309]	100%	97%
CC(C)(N)C(=O)NC[C@H]1CC[C@]2(CC1)OOC1(O2)C2CC3CC(C2)CC1C3 (stereo partly shown) [OZ281]	90%	91%
Oc1ccc([C@H]2CC[C@]3(CC2)OOC2(O3)C3CC4CC(C3)CC2C4)cc1 (stereo partly shown) [OZ288]	96%	95%
C1CCCCCC2(CCCCC1)OOC1(O2)C2CC3CC(C2)CC1C3 (stereo not shown) [OZ20]	0%	0%

Tested on: Schistosoma mansoni adult schistosomes (49-day-old)
Test: effect on adult schistosomes (49-day-old) in mice
Assay type: in vivo
Conditions: single 400 mg/kg per os
Procedure: Mice were infected with 100 Schistosoma mansoni cercariae […]. Each group was treated per os with OZ compounds at single doses of 200, 400, and 600 mg/kg. […] All groups were killed 4 weeks after treatment and the liver and intestine were removed and separated. The liver and intestine were compressed and alive male and female worms could be seen and counted.

SMILES	% reduction of adult worms growth at day 49 after per os application of 400 mg/kg, TWR (%)	adult worms at day 49, per os 400 mg/kg, DEAD WORM (%)
O=C(O)CC[C@H]1CC[C@]2(CC1)OO[C@]1(O2)C2CC3CC(C2)CC1C3 [OZ352]	16%	26%
C1COC2(CCC3(CC2)OOC2(O3)C3CC4CC(C3)CC2C4)O1 (stereo not shown) [OZ10]	28%	13%
CC1(C)COC2(CCC3(CC2)OOC2(CC(C)(C)CC(C)(C)C2)O3)OC1 [OZ36]	0/0%	0/0%
C1C2CC3CC1CC(C2)C31OOC2(O1)C1CC3CC(C1)CC2C3 (stereo not shown) [OZ04]	0/0%	0/0%
O=C(O)CNC[C@H]1CC[C@]2(CC1)OO[C@]1(O2)C2CC3CC(C2)CC1C3 [OZ309]	19%	17%
CC(C)(N)C(=O)NC[C@H]1CC[C@]2(CC1)OOC1(O2)C2CC3CC(C2)CC1C3 (stereo partly shown) [OZ281]	12%	15%
Oc1ccc([C@H]2CC[C@]3(CC2)OOC2(O3)C3CC4CC(C3)CC2C4)cc1 (stereo partly shown) [OZ288]	52%	45%
C1CCCCCC2(CCCCC1)OOC1(O2)C2CC3CC(C2)CC1C3 (stereo not shown) [OZ20]	0/0%	0/0%

Same assay, conditions: single 600 mg/kg per os

SMILES	% reduction of adult worms growth at day 49 after per os application of 600 mg/kg, TWR (%)	adult worms at day 49, per os 600 mg/kg, DEAD WORM (%)
C1COC2(CCC3(CC2)OOC2(O3)C3CC4CC(C3)CC2C4)O1 (stereo not shown) [OZ10]	21%	23%
